Values of other authors, collected in patent US20080063668A1, “Nitroimidazole and terconazole composition and method” (priority 2006, published 2008).
Counter-ions that a name gives are not always drawn.

Settings: neutral pH; cited from earlier work

CC(C)N1CCN(c2ccc(OCC3COC(Cn4cncn4)(c4ccc(Cl)cc4Cl)O3)cc2)CC1 (stereo not shown) [Terconazole hydrochloride]
solubility in water: about 0.007 percent by weight
